How the values were obtained:
[1] = molecular target: T1, human TLR7 (wild type sequence) (Homo sapiens, UniProt Q9NYK1); assay: TLR7 cellular NFκB-luc reporter assay, wild type TLR7; format: cell-based; parameters: unit not given here; conditions: lowest effective concentration; for TLR 7 wt LEC: wild type TLR7 (compounds 74 onward)
T1 construct: expressed in transfected cells; host or cells: HEK293
T1 sequence (Q9NYK1 27-1049): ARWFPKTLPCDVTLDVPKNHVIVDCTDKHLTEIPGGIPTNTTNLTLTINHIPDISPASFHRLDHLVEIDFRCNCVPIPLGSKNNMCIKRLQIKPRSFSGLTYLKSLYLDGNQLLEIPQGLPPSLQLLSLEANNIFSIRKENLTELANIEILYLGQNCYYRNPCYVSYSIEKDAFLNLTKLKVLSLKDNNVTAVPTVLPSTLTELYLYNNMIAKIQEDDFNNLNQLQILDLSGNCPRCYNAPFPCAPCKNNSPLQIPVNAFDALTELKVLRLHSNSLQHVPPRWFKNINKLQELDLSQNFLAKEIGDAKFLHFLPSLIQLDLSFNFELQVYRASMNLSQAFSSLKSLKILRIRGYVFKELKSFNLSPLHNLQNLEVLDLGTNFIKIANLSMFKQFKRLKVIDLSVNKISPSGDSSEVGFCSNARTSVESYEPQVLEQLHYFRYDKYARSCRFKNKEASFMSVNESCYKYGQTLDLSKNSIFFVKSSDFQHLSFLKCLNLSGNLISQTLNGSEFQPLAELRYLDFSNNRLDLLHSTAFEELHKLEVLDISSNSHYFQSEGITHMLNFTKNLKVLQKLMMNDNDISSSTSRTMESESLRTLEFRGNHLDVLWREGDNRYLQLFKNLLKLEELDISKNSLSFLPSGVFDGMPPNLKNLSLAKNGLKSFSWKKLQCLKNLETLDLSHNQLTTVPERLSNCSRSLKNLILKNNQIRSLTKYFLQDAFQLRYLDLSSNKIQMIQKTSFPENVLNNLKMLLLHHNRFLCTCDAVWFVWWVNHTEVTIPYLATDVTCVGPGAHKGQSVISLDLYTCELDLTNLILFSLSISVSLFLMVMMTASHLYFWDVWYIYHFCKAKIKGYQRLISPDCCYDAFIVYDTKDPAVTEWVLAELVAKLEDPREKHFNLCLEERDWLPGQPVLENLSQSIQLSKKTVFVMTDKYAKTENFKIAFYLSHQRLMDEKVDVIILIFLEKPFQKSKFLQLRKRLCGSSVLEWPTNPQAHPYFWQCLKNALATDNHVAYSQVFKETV
Description: (§1) The ability of compounds to activate human TLR7 and/or TLR8 was assessed in a cellular reporter assay using HEK293 cells transiently transfected with a TLR7 or TLR8 expression vector and NFκB-luc reporter construct. In one instance the TLR expression construct expresses the respective wild type sequence or a mutant sequence comprising a deletion in the second leucine-rich repeat of the TLR.
(§2) Briefly, HEK293 cells were grown in culture medium (DMEM supplemented with 10% FCS and 2 mM Glutamine). For transfection of cells in 10 cm dishes, cells were detached with Trypsin-EDTA, transfected with a mix of CMV-TLR7 or TLR8 plasmid (750 ng), NFκB-luc plasmid (375 ng) and a transfection reagent and incubated for 48 hours at 37° C. in a humidified 5% CO2 atmosphere. Transfected cells were then detached with Trypsin-EDTA, washed in PBS and resuspended in medium to a density of 1.67×10^5 cells/mL. Thirty microliters of cells were then dispensed into each well in 384-well plates, where 10 μL of compound in 4% DMSO was already present. Following 6 hours incubation at 37° C., 5% CO2, the luciferase activity was determined by adding 15 μl of Steady Lite Plus substrate (Perkin Elmer) to each well and readout performed on a ViewLux ultraHTS microplate imager (Perkin Elmer). Dose response curves were generated from measurements performed in quadruplicates. Lowest effective concentrations (LEC) values, defined as the concentration that induces an effect which is at least two fold above the standard deviation of the assay, were determined for each compound.

[2] = molecular target: T2, human TLR8 (wild type sequence) (Homo sapiens, UniProt Q9NR97); assay: TLR8 cellular NFκB-luc reporter assay, wild type TLR8; format: cell-based; parameters: unit not given here; conditions: lowest effective concentration; for TLR 8 wt LEC: wild type TLR8 (compounds 74 onward)
T2 construct: expressed in transfected cells; host or cells: HEK293
T2 sequence (Q9NR97 27-1041): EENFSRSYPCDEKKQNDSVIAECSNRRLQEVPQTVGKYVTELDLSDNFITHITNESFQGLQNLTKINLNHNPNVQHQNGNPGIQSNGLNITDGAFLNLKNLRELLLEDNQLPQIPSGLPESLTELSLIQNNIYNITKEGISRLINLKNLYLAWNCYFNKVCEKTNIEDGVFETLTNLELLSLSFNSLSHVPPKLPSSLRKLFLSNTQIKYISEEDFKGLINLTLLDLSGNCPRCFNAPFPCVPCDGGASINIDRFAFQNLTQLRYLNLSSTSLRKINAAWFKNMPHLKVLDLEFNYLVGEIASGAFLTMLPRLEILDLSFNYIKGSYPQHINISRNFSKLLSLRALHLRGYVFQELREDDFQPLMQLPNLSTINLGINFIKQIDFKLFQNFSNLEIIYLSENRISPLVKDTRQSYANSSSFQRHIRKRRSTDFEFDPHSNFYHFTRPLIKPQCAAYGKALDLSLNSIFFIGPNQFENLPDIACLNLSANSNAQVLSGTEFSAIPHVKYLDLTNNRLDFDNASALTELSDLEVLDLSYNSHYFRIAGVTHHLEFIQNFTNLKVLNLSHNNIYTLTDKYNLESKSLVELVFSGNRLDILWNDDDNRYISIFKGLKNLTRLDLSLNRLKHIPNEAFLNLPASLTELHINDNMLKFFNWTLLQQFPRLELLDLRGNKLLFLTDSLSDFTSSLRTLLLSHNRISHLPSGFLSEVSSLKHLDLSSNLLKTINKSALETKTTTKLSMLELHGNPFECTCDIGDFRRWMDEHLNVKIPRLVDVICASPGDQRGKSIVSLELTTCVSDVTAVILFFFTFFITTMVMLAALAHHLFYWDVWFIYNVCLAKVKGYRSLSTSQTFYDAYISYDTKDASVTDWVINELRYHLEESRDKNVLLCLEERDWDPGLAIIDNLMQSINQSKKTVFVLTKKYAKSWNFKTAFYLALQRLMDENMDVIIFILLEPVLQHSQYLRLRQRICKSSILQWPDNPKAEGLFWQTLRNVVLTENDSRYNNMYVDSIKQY
Description: as §1, §2

[3] = test system: HCV replicon in Huh-7 luc/neo cells; assay: Suppression of HCV replicon replication by conditioned media from compound-treated PBMC; format: cell-based, HCV type 1 b; conditions: Hepatitis C virus; conditioned media from compound-treated PBMC on Huh-7 luc/neo replicon cells (compounds 74 onward); read-out: PBMC HUH-7 EC50
Description: Activation of human TLR7 results in robust production of interferon by plasmacytoid dendritic cells present in human blood. The potential of compounds to induce interferon was evaluated by looking at the antiviral activity in the HCV replicon system upon incubation with conditioned media from peripheral blood mononuclear cells (PBMC). […] The assay utilized the stably transfected cell line Huh-7 luc/neo harboring an RNA encoding a bicistronic expression construct comprising the wild type NS3-NS5B regions of HCV type 1 b translated from an Internal Ribosome Entry Site (IRES) from encephalomyocarditis virus (EMCV), preceded by a reporter gene (Firefly-luciferase) and a selectable marker gene (neoR, neomycine phosphotransferase). The construct is flanked by 5′ and 3′ NTRs (non-translated regions) from HCV type 1 b. Continued culture of the replicon cells in the presence of G418 (neoR) is dependent on the replication of the HCV RNA. The stably transfected replicon cells that replicate HCV RNA autonomously and to high levels, encoding inter alia luciferase, were used for profiling of the conditioned cell culture media.
Briefly, PBMCs were prepared from buffy coats of at least two donors using a standard Ficoll centrifugation protocol. Isolated PBMCs were resuspended in RPMI medium supplemented with 10% human AB serum and 2×10^5 cells/well were dispensed into 384-well plates containing compounds (70 μL total volume). After overnight incubation, 10 μL of supernatant was transferred to 384-well plates containing 2.2×10^3 replicon cells/well in 30 μL (plated the day before). Following 24 hours of incubation, replication was measured by assaying luciferase activity using 40 μL/well Steady Lite Plus substrate (Perkin Elmer) and measured with ViewLux ultraHTS microplate imager (Perkin Elmer). […] Recombinant interferon α-2a (Roferon-A) was used as a standard control compound.

[4] = wild type TLR7 (compounds 1-73)
[5] = wild type TLR8 (compounds 1-73)

CCCCNc1nc(N)ncc1OCc1ccccc1 [Compound 1]
TLR7-wt_LEC [1, 4]: 0.90
TLR8-wt_LEC [2, 5]: 2.42

CCCCNc1nc(N)ncc1OCCC [Compound 5]
TLR7-wt_LEC [1, 4]: 6.18
TLR8-wt_LEC [2, 5]: 4.53

CCCCNc1nc(N)ncc1OCCCc1ccccc1 [Compound 19]
TLR7-wt_LEC [1, 4]: 1.53
TLR8-wt_LEC [2, 5]: 7.94

CCCCNc1nc(N)ncc1OCc1c(C)noc1C [Compound 36]
TLR8-wt_LEC [2, 5]: 1.68

CCCCNc1nc(N)ncc1OCc1ccc2ccccc2n1 [Compound 41]
TLR8-wt_LEC [2, 5]: 0.83

CCCCNc1nc(N)ncc1OCc1nccc(OC)c1OC [Compound 42]
TLR8-wt_LEC [2, 5]: 1.15

CCCCNc1nc(N)ncc1OCc1cc(C)nn1C [Compound 48]
TLR8-wt_LEC [2, 5]: 1.75

CCCC[C@@H](CCO)Nc1nc(N)ncc1OC [Compound 54]
TLR8-wt_LEC [2, 5]: 1.40

CCC[C@@H](CO)Nc1nc(N)ncc1OC [Compound 55]
TLR8-wt_LEC [2, 5]: 0.16

CCC[C@@H](CCO)Nc1nc(N)ncc1OC [Compound 57]
TLR8-wt_LEC [2, 5]: 1.80

CCCC[C@@H](CO)Nc1nc(N)ncc1OC [Compound 59]
TLR8-wt_LEC [2, 5]: 0.36

CCCC(CO)Nc1nc(N)ncc1OC (stereo not shown) [Compound 62]
TLR7-wt_LEC [1, 4]: 21.26
TLR8-wt_LEC [2, 5]: 0.55

CCCC(C)Nc1nc(N)ncc1OC (stereo not shown) [Compound 65]
TLR7-wt_LEC [1, 4]: 21.59
TLR8-wt_LEC [2, 5]: 3.68

COc1cnc(N)nc1NCCCC(F)(F)F [Compound 66]
TLR8-wt_LEC [2, 5]: 9.03

CC[C@H](C)[C@@H](CO)Nc1nc(N)ncc1OC [Compound 68]
TLR8-wt_LEC [2, 5]: 0.56

CCC[C@H](CO)Nc1nc(N)ncc1OC [Compound 72]
TLR8-wt_LEC [2, 5]: 6.57

CCCC[C@H](CO)Nc1nc(N)ncc1OC [Compound 73]
TLR8-wt_LEC [2, 5]: 0.80

CCCCNc1nc(N)ncc1OCCCc1ccc(OC)c(OC)c1 [Compound 74]
TLR 7 wt LEC [1]: 0.713
TLR 8 wt LEC [2]: 1.720
EC50 [3]: 157 nM

CCCCNc1nc(N)ncc1OCc1cccnn1 [Compound 78]
TLR 7 wt LEC [1]: 0.519
TLR 8 wt LEC [2]: 0.827

C=CCNc1nc(N)ncc1OC [Compound 90]
TLR 7 wt LEC [1]: >25
TLR 8 wt LEC [2]: 8.460

COc1cnc(N)nc1NCCC1CC1 [Compound 91]
TLR 7 wt LEC [1]: >25
TLR 8 wt LEC [2]: 20.850

COc1cnc(N)nc1N[C@H](CO)CC(C)C [Compound 93]
TLR 7 wt LEC [1]: >25
TLR 8 wt LEC [2]: 15.880

CCCCNc1nc(N)ncc1OCCCCCc1ccccc1 [Compound 111]
TLR 7 wt LEC [1]: 0.257
EC50 [3]: 96 nM

CCCCNc1nc(N)ncc1OCc1nccc2ccccc12 [Compound 123]
TLR 7 wt LEC [1]: 0.008
TLR 8 wt LEC [2]: 0.143

CCCCNc1nc(N)ncc1OCCCc1ccc(C(F)(F)F)cc1 [Compound 153]
TLR 7 wt LEC [1]: 10.640
EC50 [3]: 3430 nM

CCCCNc1nc(N)ncc1OCc1ccc2ccccc2n1 [Compound 157]
TLR 7 wt LEC [1]: 0.333
TLR 8 wt LEC [2]: 1.110

CCCCNc1nc(N)ncc1OCCCc1ccccc1C(F)(F)F [Compound 162]
TLR 7 wt LEC [1]: 11.850
TLR 8 wt LEC [2]: >25

CCCCNc1nc(N)ncc1OCc1nc(C)oc1C [Compound 178]
TLR 7 wt LEC [1]: 0.810
TLR 8 wt LEC [2]: 0.410

CCCCNc1nc(N)ncc1OCc1nccc(OC)c1OC [Compound 180]
TLR 7 wt LEC [1]: 0.135
TLR 8 wt LEC [2]: 0.524

CCCCNc1nc(N)ncc1OCc1nn(C)c2ccccc12 [Compound 182]
TLR 7 wt LEC [1]: 0.014
TLR 8 wt LEC [2]: 0.178

CCCCNc1nc(N)ncc1OCc1csc(C)n1 [Compound 191]
TLR 7 wt LEC [1]: 0.286
TLR 8 wt LEC [2]: 0.743

CCCCNc1nc(N)ncc1OCc1nc2ccccc2[nH]1 [Compound 193]
TLR 7 wt LEC [1]: 0.032
TLR 8 wt LEC [2]: 0.654

CCCCNc1nc(N)ncc1OCc1cnccn1 [Compound 199]
TLR7-wt_LEC ([1]; wild type TLR7): 0.512
TLR8-wt_LEC [2]: 0.218

CCCCNc1nc(N)ncc1OCc1nc2ccccc2s1 [Compound 222]
TLR7-wt_LEC ([1]; wild type TLR7): 0.277

CCCCNc1nc(N)ncc1OCc1cc2ccccn2n1 [Compound 224]
TLR7-wt_LEC ([1]; wild type TLR7): 0.206

CCCC[C@H](CCO)Nc1nc(N)ncc1OC [Compound 229]
TLR7-wt_LEC ([1]; wild type TLR7): >25

CCCCNc1nc(N)ncc1OC(C)C [Compound 233]
TLR7-wt_LEC ([1]; wild type TLR7): 10.070

COc1cnc(N)nc1N[C@H](CCO)CC(C)C [Compound 261]
TLR7-wt_LEC ([1]; wild type TLR7): 10.790

CCC(C)[C@H](CCO)Nc1nc(N)ncc1OC (stereo partly shown) [Compound 275]
TLR7-wt_LEC ([1]; wild type TLR7): 10.380
